Measured values: patent US4578489A (priority 1982, dated 1986)
Read-outs that look alike come from different tables or passages of the source.

Key:
Chlorella vulgaris = experiment: Action against algae: Chlorella vulgaris; format: cell-based; set-up: key: --: no growth on the agar, 3 ppm have destroyed the algae in 6 hours; details: 3 mg/liter; for Growth on the agar (algae-destroying action): 6 hours exposure, 14 days incubation; for Growth in the medium (growth inhibition): 14 days
Protocol: Cultures of Chlorella vulgaris which had been grown for 14 days in algae nutrient media are diluted in the ratio 1/200 in the algae nutrient medium. Each of the compounds listed in Table 1 is then added in such an amount as to give a final concentration of 3 mg/liter. After incubating for 6 hours, 10 μl of each culture are withdrawn and added dropwise to algae/agar in order to determine the destructive action. After the cultures have incubated for 14 days under illumination (14 hours of light and 10 hours of darkness, alternately), the growth in the algae medium (determination of growth inhibition) and on the algae/agar (determination of algae-destroying action) is assessed visually.

[1] = system: mixed culture of bacteria; format: cell-based; set-up: key: +: growth, no destruction; (+): growth less than that of control (>10 colonies), slight destruction; (-): slight growth (1-10 colonies); -: no growth, destruction
[2] = system: Enteromorpha intestinalis; experiment: Action against Enteromorpha intestinalis: inhibitory concentration (MIC); format: in vivo; details: seawater containing biocide for entire test; concentration tested 0.5 mg/liter
Protocol: (§1) The action against the green alga Enteromorpha, which is the most important in seawter fouling, is investigated in sterile-filtered seawater containing an Erd-Schreiber solution. This solution is composed of a nutrient extract, phosphate and nitrate. The incubation of Enteromorpha intestinalis is carried out in a light thermostat at 18° C. under an alternation of 14 hours of light and 10 hours of darkness.
For determining the inhibitory concentration (MIC), the algae are kept in seawater containing biocide for the entire duration of the test (concentration tested: 0.5 mg/liter).

Penicillium funiculosum = experiment: Minimum inhibitory concentration against fungi, agar incorporation test, strain M; format: cell-based; details: malt extract/agar
Protocol: (§2) The invention is carried out using the known agar incorporation test in the following fungi:
(M) Penicillium funiculosum
(§3) in a malt extract/agar (Merck). Inhibition is effected by adding sufficient of each of the various compounds to give final concentrations in the agar of 2, 5, 10, 50 and 100 mg/liter. The concentrations (mg/liters) required to inhibit the growth of the fungi (starting from traces of fungi added dropwise) are illustrated in Table 3.

[3] = system: Alcaligenes denitrificans; experiment: Minimum inhibitory concentration against bacteria, strain E; format: cell-based; details: 24 hours at 30° C.; tested at 100 and 300 mg/liter
Protocol: (§4) Overnight cultures, grown in Caso peptone bouillon (Merck) of the various strains of bacteria: (A) Proteus vulgaris, (B) Pseudomonas aeruginosa, (C) Enterobacter aerogenes, (D) Serratia marcencens, (E) Alcaligenes denitrificans and (F) Bacillus subtilis are each diluted in a ratio of 1/1000 in saline solution. Sufficient of the suspensions is put into Caso peptone bouillon to dilute the bacteria again in the ratio of 1/1000. Each of the compounds listed in Table 1 is then added in amounts of 100 and 300 mg/liter. After being incubated for 24 hours at 30° C. in a shaking waterbath, the turbidity of the samples is evaluated.

Serratia marcencens = experiment: Minimum inhibitory concentration against bacteria, strain D; format: cell-based; details: 24 hours at 30° C.; tested at 100 and 300 mg/liter
Protocol: as §4

Artemia salina = experiment: Action against Artemia salina nauplii; format: in vivo; set-up: key: 0: no change; 1: slight change; 1-2: animals are attacked; 2: animals are strongly attacked; 2-3: animals are nearly all dead; 3: animals are all dead
Protocol: The eggs, which are available commercially, are caused to hatch by vigorous aeration. When 2-3 days old, the nauplii are exposed to the products at various concentrations (concentrations tested: 2.5; 1; 0.5 and 0.25 mg/liter) in synthetic seawater, and are observed over a prolonged period of time.

Enterobacter aerogenes = experiment: Minimum inhibitory concentration against bacteria, strain C; format: cell-based; details: 24 hours at 30° C.; tested at 100 and 300 mg/liter
Protocol: as §4

Aspergillus phoenicis = experiment: Minimum inhibitory concentration against fungi, agar incorporation test, strain L; format: cell-based; details: malt extract/agar
Protocol: as §2
(L) Aspergillus phoenicis
as §3

Endomyces geotrichum = experiment: Minimum inhibitory concentration against fungi, agar incorporation test, strain Q; format: cell-based; details: malt extract/agar
Protocol: as §2, §3

Aspergillus niger = experiment: Minimum inhibitory concentration against fungi, agar incorporation test, strain K; format: cell-based; details: malt extract/agar
Protocol: as §2, §3

Proteus vulgaris = experiment: Minimum inhibitory concentration against bacteria, strain A; format: cell-based; details: 24 hours at 30° C.; tested at 100 and 300 mg/liter
Protocol: as §4

[4] = system: Cladosporium cladosporioides; experiment: Minimum inhibitory concentration against fungi, agar incorporation test, strain O; format: cell-based; details: malt extract/agar
Protocol: as §2
(O) Cladosporium cladosporioides
as §3

Alternaria alternata = experiment: Minimum inhibitory concentration against fungi, agar incorporation test, strain N; format: cell-based; details: malt extract/agar
Protocol: as §2, §3

Aureobasidium pullulans = experiment: Minimum inhibitory concentration against fungi, agar incorporation test, strain R; format: cell-based; details: malt extract/agar
Protocol: as §2
(R) Aureobasidium pullulans
as §3

Chaetomium globosum = experiment: Minimum inhibitory concentration against fungi, agar incorporation test, strain S; format: cell-based; details: malt extract/agar
Protocol: as §2, §3

Bacillus subtilis = experiment: Minimum inhibitory concentration against bacteria, strain F; format: cell-based; details: 24 hours at 30° C.; tested at 100 and 300 mg/liter
Protocol: as §4

[5] = system: Enteromorpha intestinalis; experiment: Action against Enteromorpha intestinalis: destruction (minimum killing concentration); format: in vivo; details: 4 hours in seawater, then 6-8 weeks in fresh seawater
Protocol: as §1
The algae which have been cultured in this way are exposed to the products under investigation for a short time (4 hours) in seawater. The minimum killing concentration (MKC) is determined by taking the algae out of the seawater containing a specific quantity of algicide, after the treatment time in the latter, washing the algae and investigating growth or mortality after incubation in fresh seawater for a further period of 6-8 weeks.
The minimum killing concentration (MKC) indicates the amount of substance required to cause such damage to the algae within a specific time that they can no longer recover in fresh seawater and die out.

Pseudomonas aeruginosa = experiment: Minimum inhibitory concentration against bacteria, strain B; format: cell-based; details: 24 hours at 30° C.; tested at 100 and 300 mg/liter
Protocol: as §4

Candida albicans = experiment: Minimum inhibitory concentration against fungi, agar incorporation test, strain P; format: cell-based; details: malt extract/agar
Protocol: as §2, §3

[6] = 5 mg/l, culture diluted 1/1000 in Tyrode
[7] = 5 mg/l, culture diluted 1/10000 in Tyrode
[8] = 10 mg/l, culture diluted 1/1000 in Tyrode
[9] = 10 mg/l, culture diluted 1/10000 in Tyrode
[10] = 30 mg/l, culture diluted 1/1000 in Tyrode
[11] = 30 mg/l, culture diluted 1/10000 in Tyrode
[12] = 60 mg/l, culture diluted 1/1000 in Tyrode
[13] = 60 mg/l, culture diluted 1/10000 in Tyrode
[14] = 100 mg/l, culture diluted 1/1000 in Tyrode
[15] = 100 mg/l, culture diluted 1/10000 in Tyrode

## CCCCCCCCCCCC[N+](CCO)(CCO)Cc1ccccc1.CCC[CH2][Sn-]([Cl])([Cl])([CH2]CCC)[CH2]CCC [Example 5, Dihydroxyethyl-benzyl-lauryl / Tributyldichloro]
Chlorella vulgaris
  Growth on the agar (algae-destroying action): --
  Growth in the medium (growth inhibition): --
[1]; [6]
  Growth (destruction of a mixed culture of bacteria): +
[1]; [7]
  Growth (destruction of a mixed culture of bacteria): +
[1]; [8]
  Growth (destruction of a mixed culture of bacteria): +
[1]; [9]
  Growth (destruction of a mixed culture of bacteria): +
[1]; [10]
  Growth (destruction of a mixed culture of bacteria): +
[1]; [11]
  Growth (destruction of a mixed culture of bacteria): +
[1]; [12]
  Growth (destruction of a mixed culture of bacteria): +
[1]; [13]
  Growth (destruction of a mixed culture of bacteria): +
[1]; [14]
  Growth (destruction of a mixed culture of bacteria): +
[1]; [15]
  Growth (destruction of a mixed culture of bacteria): (+) (growth less than that of control (>10 colonies), slight destruction)
[2]
  MIC: 0.5 µg/mL
Penicillium funiculosum
  MIC against fungi, strain M: 5 µg/mL
[3]
  MIC against bacteria, strain E: 100 µg/mL
Serratia marcencens
  MIC against bacteria, strain D: 100 µg/mL
Artemia salina; 0,5 mg/l, 6 hours
  Action against Artemia salina: 1-2
Artemia salina; 0,5 mg/l, 24 hours
  Action against Artemia salina: 2-3
Artemia salina; 0,5 mg/l, 48 hours
  Action against Artemia salina: 3
Artemia salina; 0,25 mg/l, 6 hours
  Action against Artemia salina: 0-1
Artemia salina; 0,25 mg/l, 24 hours
  Action against Artemia salina: 2
Artemia salina; 0,25 mg/l, 48 hours
  Action against Artemia salina: 2-3
Artemia salina; 1 mg/l, 6 hours
  Action against Artemia salina: 2
Artemia salina; 1 mg/l, 24 hours
  Action against Artemia salina: 3
Artemia salina; 1 mg/l, 48 hours
  Action against Artemia salina: 3
Artemia salina; 2,5 mg/l, 6 hours
  Action against Artemia salina: 2-3
Artemia salina; 2,5 mg/l, 24 hours
  Action against Artemia salina: 3
Artemia salina; 2,5 mg/l, 48 hours
  Action against Artemia salina: 3
Enterobacter aerogenes
  MIC against bacteria, strain C: 100 µg/mL
Aspergillus phoenicis
  MIC against fungi, strain L: 5 µg/mL
Endomyces geotrichum
  MIC against fungi, strain Q: 5 µg/mL
Aspergillus niger
  MIC against fungi, strain K: 5 µg/mL
Proteus vulgaris
  MIC against bacteria, strain A: 100 µg/mL
[4]
  MIC against fungi, strain O: 2 µg/mL
Alternaria alternata
  MIC against fungi, strain N: 5 µg/mL
Aureobasidium pullulans
  MIC against fungi, strain R: 2 µg/mL
Chaetomium globosum
  MIC against fungi, strain S: 2 µg/mL
Bacillus subtilis
  MIC against bacteria, strain F: 100 µg/mL
[5]
  Destruction, 5 mg/liter: yes
Pseudomonas aeruginosa
  MIC against bacteria, strain B: 100 µg/mL
Candida albicans
  MIC against fungi, strain P: 5 µg/mL

## CCCCCCCCCCCCCC[N+](CCO)(CCO)Cc1ccccc1.CCC[CH2][Sn-]([Cl])([Cl])([CH2]CCC)[CH2]CCC [Example 24, Di-hydroxyethyl-benzyl-tetradecyl / Tributyldichloro]
Chlorella vulgaris
  Growth on the agar (algae-destroying action): --
  Growth in the medium (growth inhibition): --
[1]; [6]
  Growth (destruction of a mixed culture of bacteria): +
[1]; [7]
  Growth (destruction of a mixed culture of bacteria): +
[1]; [8]
  Growth (destruction of a mixed culture of bacteria): +
[1]; [9]
  Growth (destruction of a mixed culture of bacteria): +
[1]; [10]
  Growth (destruction of a mixed culture of bacteria): +
[1]; [11]
  Growth (destruction of a mixed culture of bacteria): +
[1]; [12]
  Growth (destruction of a mixed culture of bacteria): +
[1]; [13]
  Growth (destruction of a mixed culture of bacteria): (+) (growth less than that of control (>10 colonies), slight destruction)
[1]; [14]
  Growth (destruction of a mixed culture of bacteria): +
[1]; [15]
  Growth (destruction of a mixed culture of bacteria): -
Penicillium funiculosum
  MIC against fungi, strain M: 5 µg/mL
[3]
  MIC against bacteria, strain E: 100 µg/mL
Serratia marcencens
  MIC against bacteria, strain D: 100 µg/mL
Artemia salina; 0,5 mg/l, 6 hours
  Action against Artemia salina: 1-2
Artemia salina; 0,5 mg/l, 24 hours
  Action against Artemia salina: 2-3
Artemia salina; 0,5 mg/l, 48 hours
  Action against Artemia salina: 3
Artemia salina; 0,25 mg/l, 6 hours
  Action against Artemia salina: 0-1
Artemia salina; 0,25 mg/l, 24 hours
  Action against Artemia salina: 2
Artemia salina; 0,25 mg/l, 48 hours
  Action against Artemia salina: 2-3
Artemia salina; 1 mg/l, 6 hours
  Action against Artemia salina: 2
Artemia salina; 1 mg/l, 24 hours
  Action against Artemia salina: 3
Artemia salina; 1 mg/l, 48 hours
  Action against Artemia salina: 3
Artemia salina; 2,5 mg/l, 6 hours
  Action against Artemia salina: 2-3
Artemia salina; 2,5 mg/l, 24 hours
  Action against Artemia salina: 3
Artemia salina; 2,5 mg/l, 48 hours
  Action against Artemia salina: 3
Enterobacter aerogenes
  MIC against bacteria, strain C: 100 µg/mL
Aspergillus phoenicis
  MIC against fungi, strain L: 5 µg/mL
Endomyces geotrichum
  MIC against fungi, strain Q: 5 µg/mL
Aspergillus niger
  MIC against fungi, strain K: 5 µg/mL
Proteus vulgaris
  MIC against bacteria, strain A: 100 µg/mL
[4]
  MIC against fungi, strain O: 2 µg/mL
Alternaria alternata
  MIC against fungi, strain N: 5 µg/mL
Aureobasidium pullulans
  MIC against fungi, strain R: 2 µg/mL
Chaetomium globosum
  MIC against fungi, strain S: 2 µg/mL
Bacillus subtilis
  MIC against bacteria, strain F: 100 µg/mL
Pseudomonas aeruginosa
  MIC against bacteria, strain B: 100 µg/mL
Candida albicans
  MIC against fungi, strain P: 5 µg/mL
